The record followed here is the supplement of paper PMC6045584.

Compound in one assay: NC1(c2ccc(-c3nc4ccn5c(=O)[nH]nc5c4cc3-c3ccccc3)cc2)CCC1 [MK2206]
Put plainly: surviving fraction relative to DMSO-only wells; higher = less growth inhibition. As to conditions: exposure time: 5 days. Summed up:
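Tumour cell lines in log phase were plated in 384-well plates at 250–500 cells per well, then, after 24 hours, exposed continuously for five days to inhibitors at 0.5, 1, 5, 10, 50, 100, 500 and 1000 nM. Viability came from CellTiter-Glo luminescence, and surviving fraction is that signal normalised to the median of DMSO-only wells. Plates were read after 10 minutes at room temperature, and each line, screened three times, was kept only when replicate Pearson r was >0.7 and median Z' was >0.3.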

Compound in a further assay: CCN(CC)CCNC(=O)c1c(C)[nH]c(/C=C2\C(=O)Nc3ccc(F)cc32)c1C [SUNITINIB]
Briefly: area under dose-response curve of surviving fraction (unscaled, Aref=0) (surviving fraction x log10(nM)); higher = more resistant. As to conditions: exposure time: 5 days; dose range 0.5-1000 nM. In outline:
(§1)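 Tumour cell lines in 384-well plates were exposed to eight inhibitor concentrations, from 0.5 to 1000 nM, for five days, and viability was read by CellTiter-Glo luminescence in three screens per line. Signals were normalised to DMSO-only wells, and 3-parameter logistic regression in the drc R package fitted dose-response survival curves to the surviving fractions. Area under the curve is given as the unscaled activity area. That area is taken over log10 dose with Aref = 0.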

Compound in another assay: O=C(O)CC[C@H]1CC[C@@](c2cc(F)ccc2F)(S(=O)(=O)c2ccc(Cl)cc2)CC1 [MK0752]
The description is as above. As to conditions: exposure time: 5 days; dose range 0.5-1000 nM. Summed up: as §1

± gives the standard deviation of the averaged measurements.

With G292 BONE, the surviving fraction with MK2206 (0.5 nM) stood at 0.96 ± 0.031; with MK2206 (1 nM), 1.01 ± 0.06; with MK2206 (5 nM) it was 0.997 ± 0.033; with MK2206 (10 nM), 0.992 ± 0.031; with MK2206 (50 nM) it was 0.893 ± 0.041; with MK2206 (100 nM), 0.833 ± 0.018. For the same test system, the surviving fraction with MK2206 (500 nM) was 0.748 ± 0.054; in the assay with MK2206 (1000 nM), 0.724 ± 0.026. In addition, the “area under dose-response curve” value in the assay with SUNITINIB turned out to be 2.82; in the assay with MK0752, 3.19.
As to LNCAP PROSTATE, the surviving fraction in the assay with MK2206 (0.5 nM) was 0.974 ± 0.07; in the assay with MK2206 (1 nM) it was 0.936 ± 0.075; with MK2206 (5 nM) it was 0.87 ± 0.015; with MK2206 (10 nM), 0.839 ± 0.092; in the assay with MK2206 (50 nM), 0.529 ± 0.022; in the assay with MK2206 (100 nM), 0.398 ± 0.0075. Besides, the surviving fraction with MK2206 (500 nM) came to 0.0787 ± 0.0097; with MK2206 (1000 nM) it was 0.071 ± 0.0017. The “area under dose-response curve” value in the assay with MK0752 was 3.22.
With SCC003 HEADNECK, the surviving fraction with MK2206 (0.5 nM) was 1.09 ± 0.063; with MK2206 (1 nM), 1.08 ± 0.049; in the assay with MK2206 (5 nM), 1.07 ± 0.053; in the assay with MK2206 (10 nM) it was 1.07 ± 0.14; with MK2206 (50 nM), 1.03 ± 0.021; in the assay with MK2206 (100 nM), 1.09 ± 0.12. Further, the results for the surviving fraction with MK2206 (500 nM) and with MK2206 (1000 nM) were 0.884 ± 0.05 and 0.717 ± 0.068, respectively. For the same test system, in the assay with SUNITINIB, the “area under dose-response curve” value worked out at 2.83.
Consider HUO3N1 BONE, for which the surviving fraction in the assay with MK2206 (0.5 nM) came out at 1.03 ± 0.072; with MK2206 (1 nM), 1.02 ± 0.045; in the assay with MK2206 (5 nM), 1.02 ± 0.052; with MK2206 (10 nM), 1.02 ± 0.051; with MK2206 (50 nM), 0.897 ± 0.044; with MK2206 (100 nM), 0.825 ± 0.036. The values for the surviving fraction with MK2206 (500 nM) and in the assay with MK2206 (1000 nM) were 0.67 ± 0.023 and 0.64 ± 0.014, respectively. Moreover, the “area under dose-response curve” value with SUNITINIB worked out at 2.62.
For the test system C33A CERVIX, the surviving fraction with MK2206 (0.5 nM) is 0.919 ± 0.03; with MK2206 (1 nM) it was 0.917 ± 0.026; in the assay with MK2206 (5 nM), 1.05 ± 0.085; with MK2206 (10 nM), 0.929 ± 0.029; in the assay with MK2206 (50 nM), 1.01 ± 0.063; with MK2206 (100 nM), 0.925 ± 0.058. The surviving fraction with MK2206 (500 nM) came out at 0.812 ± 0.084; in the assay with MK2206 (1000 nM), 0.817 ± 0.042. Also, the “area under dose-response curve” value with MK0752 turned out to be 3.7.
Take HCC1395 BREAST: the surviving fraction with MK2206 (0.5 nM) was 1.08 ± 0.18; in the assay with MK2206 (1 nM) it was 0.985 ± 0.056; with MK2206 (5 nM) it was 1.09 ± 0.16; with MK2206 (10 nM), 1.04 ± 0.19; with MK2206 (50 nM), 0.934 ± 0.057; in the assay with MK2206 (100 nM), 1.1 ± 0.13. Moreover, the surviving fraction with MK2206 (500 nM) was determined as 0.89 ± 0.082; in the assay with MK2206 (1000 nM), 0.817 ± 0.15. The “area under dose-response curve” value came to 3.19 in the assay with SUNITINIB and 3.51 with MK0752.
Consider CAL72 BONE, for which the surviving fraction with MK2206 (0.5 nM) stood at 1.1 ± 0.024; with MK2206 (1 nM) it was 1.1 ± 0.11; in the assay with MK2206 (5 nM), 1.12 ± 0.06; with MK2206 (10 nM) it was 1.11 ± 0.1; in the assay with MK2206 (50 nM), 1.12 ± 0.019; with MK2206 (100 nM), 1.16 ± 0.096. The surviving fraction in the assay with MK2206 (500 nM) was 1.06 ± 0.087; in the assay with MK2206 (1000 nM), 1.05 ± 0.053. Besides, the “area under dose-response curve” value with MK0752 was 3.63.
